Results published in article PMC5218480 (PLoS ONE, 2017).

Tested on: MV-4-11 cells
Assay: Gene expression microarray analysis (Affymetrix PrimeView) and GSEA
Format: cell-based, human
Design: RFU PODN (11730768_x_at) / Fold change /veh PODN (11730768_x_at) / RFU LINC00158 (11744669_a_at) / Fold change /veh LINC00158 (11744669_a_at) / RFU DUSP10 (11751237_a_at) / Fold change /veh DUSP10 (11751237_a_at) / RFU ID3 (11757404_x_at) / Fold change /veh ID3 (11757404_x_at) / RFU PLEKHG5 (11737974_s_at) / Fold change /veh PLEKHG5 (11737974_s_at) / RFU LRRC4B (11730491_at) / Fold change /veh LRRC4B (11730491_at) / RFU GIMAP4 (11747438_a_at) / Fold change /veh GIMAP4 (11747438_a_at) / RFU KRT8 (11758183_x_at) / Fold change /veh KRT8 (11758183_x_at) / RFU CNN1 (11734310_a_at) / Fold change /veh CNN1 (11734310_a_at) / RFU VPS37D (11726825_at) / Fold change /veh VPS37D (11726825_at) / RFU C10orf10 (11716522_x_at) / Fold change /veh C10orf10 (11716522_x_at) / RFU KIR2DL2 /// KIR2DL4 /// KIR2DL5A /// KIR2DL5B /// KIR2DS1 /// KIR2DS2 /// KIR2DS3 /// KIR2DS4 /// KIR3DL3 /// KIR3DL3 /// KIR3DS1 (11738374_at) / Fold change /veh KIR2DL2 /// KIR2DL4 /// KIR2DL5A /// KIR2DL5B /// KIR2DS1 /// KIR2DS2 /// KIR2DS3 /// KIR2DS4 /// KIR3DL3 /// KIR3DL3 /// KIR3DS1 (11738374_at) / RFU C1QL1 (11718748_at) / Fold change /veh C1QL1 (11718748_at) / RFU TMPRSS4 (11747572_a_at) / Fold change /veh TMPRSS4 (11747572_a_at) / RFU HAMP (11756126_x_at) / Fold change /veh HAMP (11756126_x_at) / RFU RNFT2 (11725882_a_at) / Fold change /veh RNFT2 (11725882_a_at) / RFU NR4A2 (11747474_a_at) / Fold change /veh NR4A2 (11747474_a_at) / RFU ABCC12 (11746883_a_at) / Fold change /veh ABCC12 (11746883_a_at) / RFU TMEM136 (11760407_x_at) / Fold change /veh TMEM136 (11760407_x_at) / RFU CLDN22 /// WWC2 (11732394_at) / Fold change /veh CLDN22 /// WWC2 (11732394_at) / RFU HLA-DPB1 (11760878_x_at) / Fold change /veh HLA-DPB1 (11760878_x_at) / RFU SPINT1 (11716480_a_at) / Fold change /veh SPINT1 (11716480_a_at) / RFU GAP43 (11754022_s_at) / Fold change /veh GAP43 (11754022_s_at) / RFU A4GNT (11735810_at) / Fold change /veh A4GNT (11735810_at) / RFU PRB3 (11715151_x_at) / Fold change /veh PRB3 (11715151_x_at) / RFU TUBB4B (11761932_at) / Fold change /veh TUBB4B (11761932_at) / RFU CAPN14 (11732068_a_at) / Fold change /veh CAPN14 (11732068_a_at) / RFU TMCC2 (11721928_a_at) / Fold change /veh TMCC2 (11721928_a_at) / RFU IRGQ (11745062_a_at) / Fold change /veh IRGQ (11745062_a_at) / RFU FAM174B (11720279_a_at) / Fold change /veh FAM174B (11720279_a_at) / RFU TMPRSS4 (11748680_a_at) / Fold change /veh TMPRSS4 (11748680_a_at) / RFU FAM212B (11763350_a_at) / Fold change /veh FAM212B (11763350_a_at) / RFU PLEKHG5 (11743358_a_at) / Fold change /veh PLEKHG5 (11743358_a_at) / RFU ZSCAN30 (11745921_a_at) / Fold change /veh ZSCAN30 (11745921_a_at) / RFU CMKLR1 (11741424_a_at) / Fold change /veh CMKLR1 (11741424_a_at) / RFU LOC101060620 /// MAPK8IP1 (11723275_at) / Fold change /veh LOC101060620 /// MAPK8IP1 (11723275_at) / RFU SPTSSB (11747773_x_at) / Fold change /veh SPTSSB (11747773_x_at) / RFU PRSS12 (11739890_at) / Fold change /veh PRSS12 (11739890_at) / RFU BIN1 (11741810_x_at) / Fold change /veh BIN1 (11741810_x_at) / RFU WNT11 (11732464_a_at) / Fold change /veh WNT11 (11732464_a_at) / RFU C10orf10 (11716521_a_at) / Fold change /veh C10orf10 (11716521_a_at) / RFU C5orf56 (11738089_at) / Fold change /veh C5orf56 (11738089_at) / RFU CYB561 (11721691_x_at) / Fold change /veh CYB561 (11721691_x_at) / RFU ANKRD19P (11752326_a_at) / Fold change /veh ANKRD19P (11752326_a_at) / RFU OR2T12 /// OR2T33 /// OR2T8 (11738714_s_at) / Fold change /veh OR2T12 /// OR2T33 /// OR2T8 (11738714_s_at) / RFU VCAN (11748164_a_at) / Fold change /veh VCAN (11748164_a_at) / RFU JSRP1 (11732532_at) / Fold change /veh JSRP1 (11732532_at) / RFU KRTAP10-11 (11738290_x_at) / Fold change /veh KRTAP10-11 (11738290_x_at) / RFU MYO3A (11730013_a_at) / Fold change /veh MYO3A (11730013_a_at) / RFU EBF3 (11725865_a_at) / Fold change /veh EBF3 (11725865_a_at) / RFU CAMK2N1 (11719241_x_at) / Fold change /veh CAMK2N1 (11719241_x_at) / RFU C5orf56 (11738088_a_at) / Fold change /veh C5orf56 (11738088_a_at) / RFU OLFML3 (11715873_a_at) / Fold change /veh OLFML3 (11715873_a_at) / RFU LOC100653217 /// NTM (11731650_a_at) / Fold change /veh LOC100653217 /// NTM (11731650_a_at) / RFU MAPK11 (11762145_a_at) / Fold change /veh MAPK11 (11762145_a_at) / RFU FIZ1 (11724087_x_at) / Fold change /veh FIZ1 (11724087_x_at) / RFU OASL (11726364_x_at) / Fold change /veh OASL (11726364_x_at) / RFU SOX15 (11748057_x_at) / Fold change /veh SOX15 (11748057_x_at) / RFU CD79A (11719716_a_at) / Fold change /veh CD79A (11719716_a_at) / RFU HIST1H1D (11736915_at) / Fold change /veh HIST1H1D (11736915_at) / RFU CASKIN2 (11723855_a_at) / Fold change /veh CASKIN2 (11723855_a_at) / RFU LOC730098 (11760151_x_at) / Fold change /veh LOC730098 (11760151_x_at) / RFU OR4N2 (11742367_at) / Fold change /veh OR4N2 (11742367_at) / RFU PRRT2 (11749266_a_at) / Fold change /veh PRRT2 (11749266_a_at) / RFU SNX32 (11753110_a_at) / Fold change /veh SNX32 (11753110_a_at) / RFU CDHR5 (11726645_a_at) / Fold change /veh CDHR5 (11726645_a_at) / RFU RCAN1 (11760418_a_at) / Fold change /veh RCAN1 (11760418_a_at) / RFU FAM167A (11723789_a_at) / Fold change /veh FAM167A (11723789_a_at) / RFU FAM26E (11764081_at) / Fold change /veh FAM26E (11764081_at) / RFU ISYNA1 (11749810_s_at) / Fold change /veh ISYNA1 (11749810_s_at) / RFU ACY1 (11761880_at) / Fold change /veh ACY1 (11761880_at) / RFU 11764098_at / Fold change /veh 11764098_at / RFU SAMD14 (11745864_x_at) / Fold change /veh SAMD14 (11745864_x_at) / RFU NPB (11741838_a_at) / Fold change /veh NPB (11741838_a_at) / RFU TMPRSS6 (11731388_a_at) / Fold change /veh TMPRSS6 (11731388_a_at) / RFU KRTAP10-2 (11738614_at) / Fold change /veh KRTAP10-2 (11738614_at) / RFU ARHGAP8 /// PRR5-ARHGAP8 (11727945_x_at) / Fold change /veh ARHGAP8 /// PRR5-ARHGAP8 (11727945_x_at) / RFU KRTAP5-7 /// NADSYN1 (11734609_at) / Fold change /veh KRTAP5-7 /// NADSYN1 (11734609_at) / RFU RASL12 (11751679_a_at) / Fold change /veh RASL12 (11751679_a_at) / RFU CDKN2B (11736163_a_at) / Fold change /veh CDKN2B (11736163_a_at) / RFU PRF1 (11729649_at) / Fold change /veh PRF1 (11729649_at) / RFU, ZNF638 /// ZNF638-IT1 / Fold change vs veh, ZNF638 /// ZNF638-IT1 / RFU, PANK3 / Fold change vs veh, PANK3 / RFU, SH3YL1 / Fold change vs veh, SH3YL1 / RFU, ZEB2 / Fold change vs veh, ZEB2 / RFU, NRIP1 / Fold change vs veh, NRIP1 / RFU, PTTG1IP / Fold change vs veh, PTTG1IP / RFU, CAPN2 / Fold change vs veh, CAPN2 / RFU, MED14 / Fold change vs veh, MED14 / RFU, SNORA58 / Fold change vs veh, SNORA58 / RFU, C1orf63 / Fold change vs veh, C1orf63 / RFU, LRRFIP1 / Fold change vs veh, LRRFIP1 / RFU, NDUFAF7 / Fold change vs veh, NDUFAF7 / RFU, SLC12A2 / Fold change vs veh, SLC12A2 / RFU, IBTK / Fold change vs veh, IBTK / RFU, ESF1 / Fold change vs veh, ESF1 / Fold change vs veh, TMEM50B / RFU, TAOK1 / Fold change vs veh, TAOK1 / RFU, ACBD3 / Fold change vs veh, ACBD3 / RFU, TMA16 / Fold change vs veh, TMA16 / RFU, RWDD3 / Fold change vs veh, RWDD3 / RFU, BCAT1 / Fold change vs veh, BCAT1 / RFU, EDEM3 / Fold change vs veh, EDEM3 / RFU, TMEM33 / Fold change vs veh, TMEM33 / RFU, WDR75 / Fold change vs veh, WDR75 / RFU, AHCTF1 / Fold change vs veh, AHCTF1 / RFU, TFRC / Fold change vs veh, TFRC / RFU, ZDHHC17 / Fold change vs veh, ZDHHC17 / RFU, NOM1 / Fold change vs veh, NOM1 / RFU, ARL8B / Fold change vs veh, ARL8B / RFU, ZBTB11 / Fold change vs veh, ZBTB11 / RFU, TAMM41 / Fold change vs veh, TAMM41 / RFU, KIAA1704 /// LOC100996395 / Fold change vs veh, KIAA1704 /// LOC100996395 / RFU, ING1 / Fold change vs veh, ING1 / RFU, TRMT61B / Fold change vs veh, TRMT61B / RFU, FUBP3 / Fold change vs veh, FUBP3 / RFU, TP53 / Fold change vs veh, TP53 / RFU, TNKS2 / Fold change vs veh, TNKS2 / RFU, ZFP14 / Fold change vs veh, ZFP14 / RFU, ACTR2 / Fold change vs veh, ACTR2 / RFU, PPP3R1 / Fold change vs veh, PPP3R1 / RFU, PIK3R1 / Fold change vs veh, PIK3R1 / RFU, HNRNPA1 / Fold change vs veh, HNRNPA1 / RFU, RNF170 / Fold change vs veh, RNF170 / RFU, ZNF28 / Fold change vs veh, ZNF28 / RFU, RNGTT / Fold change vs veh, RNGTT / RFU, OGT / Fold change vs veh, OGT / RFU, BRD1 / Fold change vs veh, BRD1 / RFU, MARS / Fold change vs veh, MARS / RFU, ZNF655 / Fold change vs veh, ZNF655 / RFU, FAHD1 / Fold change vs veh, FAHD1 / RFU, BDP1 / Fold change vs veh, BDP1 / RFU, LRRCC1 / Fold change vs veh, LRRCC1 / RFU, ARID1A / Fold change vs veh, ARID1A / RFU, ZNF146 / Fold change vs veh, ZNF146 / RFU, ZNF330 / Fold change vs veh, ZNF330 / RFU, GPN3 / Fold change vs veh, GPN3 / RFU, C9orf123 / Fold change vs veh, C9orf123 / RFU, N4BP2L2 / Fold change vs veh, N4BP2L2 / RFU, ARFIP1 / Fold change vs veh, ARFIP1 / RFU, FAM179B / Fold change vs veh, FAM179B / RFU, BCL10 / Fold change vs veh, BCL10 / RFU, UHRF1BP1L / Fold change vs veh, UHRF1BP1L / RFU, BET1 / Fold change vs veh, BET1 / RFU, CNOT2 / Fold change vs veh, CNOT2 / RFU, ZNF268 / Fold change vs veh, ZNF268 / Fold change vs veh, ZNF507 / RFU, DGCR2 / Fold change vs veh, DGCR2 / RFU, WDSUB1 / Fold change vs veh, WDSUB1 / Fold change vs veh, HSP90B1 /// MIR3652 / RFU, ADSS / Fold change vs veh, ADSS / RFU, GK / Fold change vs veh, GK / RFU, ZNF148 / Fold change vs veh, ZNF148 / RFU, TAF9 / Fold change vs veh, TAF9 / RFU, SLC1A5 / Fold change vs veh, SLC1A5 / RFU, SLMO2 / Fold change vs veh, SLMO2 / RFU, ABCC4 / Fold change vs veh, ABCC4 / RFU, LOC101060439 /// RAP1B / Fold change vs veh, LOC101060439 /// RAP1B / RFU, RFX7 / Fold change vs veh, RFX7 / RFU, GTPBP10 / Fold change vs veh, GTPBP10 / RFU, CNEP1R1 / Fold change vs veh, CNEP1R1 / RFU, BIVM-ERCC5 /// ERCC5 / Fold change vs veh, BIVM-ERCC5 /// ERCC5 / RFU, ILF3 / Fold change vs veh, ILF3 / RFU 11762660_at / Fold change /veh 11762660_at / RFU VCAN (11757783_s_at) / Fold change /veh VCAN (11757783_s_at) / RFU DDX43 (11728927_at) / Fold change /veh DDX43 (11728927_at) / RFU KRT8 (11758188_x_at) / Fold change /veh KRT8 (11758188_x_at) / RFU NKD1 (11759106_at) / Fold change /veh NKD1 (11759106_at) / RFU SRD5A1 (11742802_a_at) / Fold change /veh SRD5A1 (11742802_a_at) / RFU TPSAB1 /// TPSB2 (11721975_s_at) / Fold change /veh TPSAB1 /// TPSB2 (11721975_s_at) / RFU GSTM3 (11746129_a_at) / Fold change /veh GSTM3 (11746129_a_at) / RFU IL23R (11737362_x_at) / Fold change /veh IL23R (11737362_x_at) / RFU TMEM51 (11727254_a_at) / Fold change /veh TMEM51 (11727254_a_at) / RFU PIWIL2 (11732686_x_at) / Fold change /veh PIWIL2 (11732686_x_at) / RFU ORM1 (11744905_x_at) / Fold change /veh ORM1 (11744905_x_at) / RFU CCDC152 (11743942_at) / Fold change /veh CCDC152 (11743942_at) / RFU ECM1 (11717891_a_at) / Fold change /veh ECM1 (11717891_a_at) / RFU IL23R (11748794_a_at) / Fold change /veh IL23R (11748794_a_at) / RFU TNFAIP8L3 (11732012_x_at) / Fold change /veh TNFAIP8L3 (11732012_x_at) / RFU MBOAT4 (11741988_at) / Fold change /veh MBOAT4 (11741988_at) / RFU 11764193_at / Fold change /veh 11764193_at / RFU TMEM53 (11763286_at) / Fold change /veh TMEM53 (11763286_at) / RFU MAGEB2 (11727129_at) / Fold change /veh MAGEB2 (11727129_at) / RFU TMEM200A (11744735_a_at) / Fold change /veh TMEM200A (11744735_a_at) / RFU CCDC152 (11751479_a_at) / Fold change /veh CCDC152 (11751479_a_at) / RFU FAM211A (11726209_a_at) / Fold change /veh FAM211A (11726209_a_at) / RFU RGS16 (11746705_a_at) / Fold change /veh RGS16 (11746705_a_at) / RFU VCAN (11755009_s_at) / Fold change /veh VCAN (11755009_s_at) / RFU RHOB (11743442_s_at) / Fold change /veh RHOB (11743442_s_at) / RFU RGS16 (11720943_a_at) / Fold change /veh RGS16 (11720943_a_at) / RFU RGS16 (11720944_at) / Fold change /veh RGS16 (11720944_at) / RFU, VPS4B / Fold change vs veh, VPS4B / RFU, CREB1 / Fold change vs veh, CREB1 / RFU, DNAJC13 / Fold change vs veh, DNAJC13 / RFU, GNAQ / Fold change vs veh, GNAQ / RFU, CDK5R1 / Fold change vs veh, CDK5R1 / RFU, ZRANB3 / Fold change vs veh, ZRANB3 / RFU, CUL4A / Fold change vs veh, CUL4A / RFU, CCNY / Fold change vs veh, CCNY / RFU, UFL1 / Fold change vs veh, UFL1 / RFU, COG3 / Fold change vs veh, COG3 / RFU, DIAPH2 / Fold change vs veh, DIAPH2 / RFU, SKA2 / Fold change vs veh, SKA2 / RFU, AFF3 / Fold change vs veh, AFF3 / RFU, LMF1 / Fold change vs veh, LMF1 / RFU, IPO11 / Fold change vs veh, IPO11 / RFU, DFFB / Fold change vs veh, DFFB / RFU, FOXP1 / Fold change vs veh, FOXP1 / RFU, CARD8 / Fold change vs veh, CARD8 / RFU, STRN3 / Fold change vs veh, STRN3 / RFU, ADK / Fold change vs veh, ADK / RFU, RASSF2 / Fold change vs veh, RASSF2 / RFU, WIPF1 / Fold change vs veh, WIPF1 / RFU, LARP1B / Fold change vs veh, LARP1B / RFU, RASA1 / Fold change vs veh, RASA1 / RFU, RB1 / Fold change vs veh, RB1 / RFU, PPFIA1 / Fold change vs veh, PPFIA1 / RFU, MAT2A / Fold change vs veh, MAT2A / RFU, CCT5 / Fold change vs veh, CCT5 / RFU, WDR92 / Fold change vs veh, WDR92 / RFU, CUX1 / Fold change vs veh, CUX1 / RFU, TTC7A / Fold change vs veh, TTC7A / RFU, TMEM135 / Fold change vs veh, TMEM135 / RFU, DEPTOR / Fold change vs veh, DEPTOR / RFU, CPM / Fold change vs veh, CPM / RFU, DNAJB6 / Fold change vs veh, DNAJB6 / RFU, CACNA2D3 / Fold change vs veh, CACNA2D3 / RFU, DTX4 / Fold change vs veh, DTX4 / RFU, TFCP2 / Fold change vs veh, TFCP2 / RFU, GMCL1 /// GMCL1P1 / Fold change vs veh, GMCL1 /// GMCL1P1 / RFU, AEBP2 / Fold change vs veh, AEBP2 / RFU, SNHG1 /// SNORD22 /// SNORD25 /// SNORD26 /// SNORD27 /// SNORD28 /// SNORD29 /// SNORD31 / Fold change vs veh, SNHG1 /// SNORD22 /// SNORD25 /// SNORD26 /// SNORD27 /// SNORD28 /// SNORD29 /// SNORD31 / Fold change (Aza/veh), C12orf56 (ProbeSet 11735607_a_at) / Fold change (ACY-1035/veh), C12orf56 (ProbeSet 11735607_a_at) / Fold change (Aza/veh), FGFR1OP (ProbeSet 11751329_s_at) / Fold change (ACY-1035/veh), FGFR1OP (ProbeSet 11751329_s_at) / Fold change (Aza/veh), VPS36 (ProbeSet 11739960_a_at) / Fold change (ACY-1035/veh), VPS36 (ProbeSet 11739960_a_at) / RFU SYPL1 (11715823_x_at) / Fold change /veh SYPL1 (11715823_x_at) / RFU IGFBP7 (11715501_s_at) / Fold change /veh IGFBP7 (11715501_s_at) / RFU REEP3 (11722064_at) / Fold change /veh REEP3 (11722064_at) / RFU IGLL1 (11728026_x_at) / Fold change /veh IGLL1 (11728026_x_at): dose or concentration left out as unconfirmed
Conditions: MV-4-11 cells, 48 hours

Compound: Nc1ccc(-c2cccs2)cc1NC(=O)c1ccc2c(c1)cc(C1CC1)n2CCN1CCOCC1 [ACY-1035]
- RFU GIMAP4 (11747438_a_at): 6.21 RFU
